Laboratory results as given in patent publication US10123993B2, “Cyclic ureas as inhibitors of rock” (BRISTOL-MYERS SQUIBB COMPANY, priority 2015, dated 2018).
pIC50: −log10 of the molar value. Where a name gives a salt, the structure may show the parent alone.

Biological target: ROCK2 (Homo sapiens, UniProt O75116)
Assay: ROCK2 kinase inhibition assay (Caliper LABCHIP, FITC peptide substrate)
Assay type: biochemical
Conditions: 5 μM ATP, 1.5 μM peptide substrate; value ranges
Summary of the method: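 Dose-response curves gave IC50 from inhibition of peptide phosphorylation, measured by LabChip separation after EDTA stop. Reactions used 1.5 μM FITC-labelled peptide, 5 μM ATP, 20 mM HEPES pH 7.5 with MgCl2, Brij-35, DTT, and under 2% DMSO.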

ROCK2, sequence (O75116 whole entry, species assumed): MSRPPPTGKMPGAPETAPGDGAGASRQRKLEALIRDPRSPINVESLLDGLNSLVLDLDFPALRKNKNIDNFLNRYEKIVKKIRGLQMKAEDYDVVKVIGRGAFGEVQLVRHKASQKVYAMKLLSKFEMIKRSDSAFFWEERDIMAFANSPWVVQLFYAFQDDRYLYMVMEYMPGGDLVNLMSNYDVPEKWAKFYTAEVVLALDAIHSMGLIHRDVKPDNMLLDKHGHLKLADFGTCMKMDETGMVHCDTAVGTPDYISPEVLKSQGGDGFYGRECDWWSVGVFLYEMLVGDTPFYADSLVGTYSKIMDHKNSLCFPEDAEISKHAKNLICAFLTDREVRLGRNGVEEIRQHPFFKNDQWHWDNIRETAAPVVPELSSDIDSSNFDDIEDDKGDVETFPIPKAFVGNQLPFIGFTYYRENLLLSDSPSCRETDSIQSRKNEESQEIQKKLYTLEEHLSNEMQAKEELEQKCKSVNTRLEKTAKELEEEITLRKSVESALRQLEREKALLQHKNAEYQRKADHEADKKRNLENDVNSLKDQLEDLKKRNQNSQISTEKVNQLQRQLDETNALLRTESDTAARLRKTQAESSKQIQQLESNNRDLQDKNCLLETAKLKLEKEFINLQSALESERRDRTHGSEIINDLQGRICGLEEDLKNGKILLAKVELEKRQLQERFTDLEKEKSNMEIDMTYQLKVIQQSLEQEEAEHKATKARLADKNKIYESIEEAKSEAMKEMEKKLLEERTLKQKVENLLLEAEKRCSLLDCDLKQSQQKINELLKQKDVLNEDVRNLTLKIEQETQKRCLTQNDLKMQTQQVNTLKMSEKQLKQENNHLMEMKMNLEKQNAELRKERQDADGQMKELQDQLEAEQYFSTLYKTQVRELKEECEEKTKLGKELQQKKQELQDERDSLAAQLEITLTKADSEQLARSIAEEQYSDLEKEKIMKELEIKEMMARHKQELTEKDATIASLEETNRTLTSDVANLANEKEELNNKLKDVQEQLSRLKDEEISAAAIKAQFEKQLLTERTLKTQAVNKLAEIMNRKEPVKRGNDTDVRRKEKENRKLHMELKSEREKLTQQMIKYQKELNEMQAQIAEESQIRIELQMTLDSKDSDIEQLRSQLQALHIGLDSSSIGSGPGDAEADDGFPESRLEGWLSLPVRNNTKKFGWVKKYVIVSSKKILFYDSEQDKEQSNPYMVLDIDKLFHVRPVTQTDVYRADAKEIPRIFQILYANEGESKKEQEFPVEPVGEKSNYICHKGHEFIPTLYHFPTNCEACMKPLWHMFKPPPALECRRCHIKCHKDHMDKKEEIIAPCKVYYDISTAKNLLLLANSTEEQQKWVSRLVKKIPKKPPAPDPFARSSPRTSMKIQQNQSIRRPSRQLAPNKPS

Structure (SMILES)	pIC50
COc1cccc(C(C)n2ccn(-c3ccc(-c4cn[nH]c4)c(OC)n3)c2=O)c1 (single isomer, unassigned) [Example 401, 1-(6-methoxy-5-(1H-pyrazol-4-yl)pyridin-2-yl)-3-(1-(3-methoxyphenyl)ethyl)-1H-imidazol-2(3H)-one]	7.70 to 8.68
COc1cccc(C(C)N2CCN(c3ccc(-c4cn[nH]c4)cn3)C2=O)c1 (single isomer, unassigned) [Example 459, 1-(5-(1H-pyrazol-4-yl)pyridin-2-yl)-3-(1-(3-methoxyphenyl)ethyl)imidazolidin-2-one]	6.70 to 7.70
COc1cccc(C(C)N2CCN(c3ccc(-c4cn[nH]c4)cn3)C2=O)c1 (single isomer, unassigned) [Example 460, 1-(5-(1H-pyrazol-4-yl)pyridin-2-yl)-3-(1-(3-methoxyphenyl)ethyl)imidazolidin-2-one]	> 8.70
COc1cccc(C(CO)N2CCN(c3ccc(-c4cn[nH]c4)cn3)C2=O)c1 (single isomer, unassigned) [Example 461, 1-(5-(1H-pyrazol-4-yl)pyridin-2-yl)-3-(2-hydroxy-1-(3-methoxyphenyl)ethyl)imidazolidin-2-one]	> 8.70
COc1cccc(C(CO)N2CCN(c3ccc(-c4cn[nH]c4)cn3)C2=O)c1 (single isomer, unassigned) [Example 462, 1-(5-(1H-pyrazol-4-yl)pyridin-2-yl)-3-(2-hydroxy-1-(3-methoxyphenyl)ethyl)imidazolidin-2-one]	6.70 to 7.70
COc1cccc(C(C)N2CCN(c3cc(C)c(-c4cn[nH]c4)cn3)C2=O)c1 (single isomer, unassigned) [Example 470, 1-(1-(3-methoxyphenyl)ethyl)-3-(4-methyl-5-(1H-pyrazol-4-yl)pyridin-2-yl)imidazolidin-2-one]	6.70 to 7.70
COc1cccc(C(C)N2CCN(c3cc(C)c(-c4cn[nH]c4)cn3)C2=O)c1 (single isomer, unassigned) [Example 471, 1-(1-(3-methoxyphenyl)ethyl)-3-(4-methyl-5-(1H-pyrazol-4-yl)pyridin-2-yl)imidazolidin-2-one]	6.70 to 7.70
COc1cccc(CN2C(=O)N(c3ccc(-c4cn[nH]c4)cc3)CC2CO)c1 (single isomer, unassigned; (+)) [Example 42, (+)-1-(4-(1H-Pyrazol-4-yl)phenyl)-4-(hydroxymethyl)-3-(3-methoxybenzyl)imidazolidin-2-one]	> 8.70
COc1cccc(CN2C(=O)N(c3ccc(-c4cn[nH]c4)cc3)CC2C(C)(C)O)c1 (single isomer, unassigned; (+)) [Example 45, (+)-1-(4-(1H-Pyrazol-4-yl)phenyl)-4-(2-hydroxypropan-2-yl)-3-(3-methoxybenzyl)imidazolidin-2-one]	> 8.70
COc1cccc(CN2CC(CO)N(c3ccc(-c4cn[nH]c4)cc3)C2=O)c1 (single isomer, unassigned; (+)) [Example 48, (+)-3-(4-(1H-Pyrazol-4-yl)phenyl)-4-(hydroxymethyl)-1-(3-methoxybenzyl)imidazolidin-2-one]	7.70 to 8.68
CC(c1ccccc1)n1ccn(-c2ccc(-c3cn[nH]c3)cc2)c1=O (single isomer, unassigned; (+)) [Example 72, (+)-1-(4-(1H-pyrazol-4-yl)phenyl)-3-(1-phenylethyl)-1H-imidazol-2(3H)-one]	7.70 to 8.68
COc1cccc(CN2C(=O)N(c3ccc(-c4cn[nH]c4)cc3)CC2CO)c1 (single isomer, unassigned; (-)) [Example 43, (−)-1-(4-(1H-Pyrazol-4-yl)phenyl)-4-(hydroxymethyl)-3-(3-methoxybenzyl)imidazolidin-2-one]	> 8.70
COc1cccc(CN2C(=O)N(c3ccc(-c4cn[nH]c4)cc3)CC2C(C)(C)O)c1 (single isomer, unassigned; (-)) [Example 44, (−)-1-(4-(1H-Pyrazol-4-yl)phenyl)-4-(2-hydroxypropan-2-yl)-3-(3-methoxybenzyl)imidazolidin-2-one]	> 8.70
COc1cccc(CN2CC(CO)N(c3ccc(-c4cn[nH]c4)cc3)C2=O)c1 (single isomer, unassigned; (-)) [Example 47, (−)-3-(4-(1H-Pyrazol-4-yl)phenyl)-4-(hydroxymethyl)-1-(3-methoxybenzyl)imidazolidin-2-one]	6.70 to 7.70
CC(c1ccccc1)n1ccn(-c2ccc(-c3cn[nH]c3)cc2)c1=O (single isomer, unassigned; (-)) [Example 73, (−)-1-(4-(1H-pyrazol-4-yl)phenyl)-3-(1-phenylethyl)-1H-imidazol-2(3H)-one]	6.70 to 7.70
O=C1N(CCc2ccccc2)CCN1c1ccc(-c2cn[nH]c2)cc1 [Example 1, 1-(4-(1H-Pyrazol-4-yl)phenyl)-3-phenethylimidazolidin-2-one]	7.70 to 8.68
COc1cccc(CN2CCN(c3ccc(-c4cn[nH]c4)cc3)C2=O)c1 [Example 2, 1-(4-(1H-pyrazol-4-yl)phenyl)-3-(3-methoxybenzyl)imidazolidin-2-one]	7.70 to 8.68
O=C1N(Cc2ccccc2)CCN1c1ccc(-c2cn[nH]c2)cc1 [Example 3, 1-(4-(1H-pyrazol-4-yl)phenyl)-3-benzylimidazolidin-2-one]	7.70 to 8.68
O=C1N(Cc2cccc(F)c2)CCN1c1ccc(-c2cn[nH]c2)cc1 [Example 4, 1-(4-(1H-pyrazol-4-yl)phenyl)-3-(3-fluorobenzyl)imidazolidin-2-one]	7.70 to 8.68

Structure (SMILES)	pIC50
O=C1N(Cc2ccc(F)cc2)CCN1c1ccc(-c2cn[nH]c2)cc1 [Example 5, 1-(4-(1H-pyrazol-4-yl)phenyl)-3-(4-fluorobenzyl)imidazolidin-2-one]	6.70 to 7.70
COc1cc(N2CCN(Cc3cccc(F)c3)C2=O)ccc1-c1cn[nH]c1 [Example 6, 1-(3-Fluorobenzyl)-3-(3-methoxy-4-(1H-pyrazol-4-yl)phenyl)imidazolidin-2-one]	7.70 to 8.68
COc1cccc(CN2CCN(c3ccc(-c4cn[nH]c4)c(OC)c3)C2=O)c1 [Example 7, 1-(3-Methoxy-4-(1H-pyrazol-4-yl)phenyl)-3-(3-methoxybenzyl)imidazolidin-2-one]	7.70 to 8.68
COc1cc(N2CCN(CCc3ccc(F)cc3)C2=O)ccc1-c1cn[nH]c1 [Example 8, 1-(4-Fluorophenethyl)-3-(3-methoxy-4-(1H-pyrazol-4-yl)phenyl)imidazolidin-2-one]	5.70 to 6.70
COc1cc(-c2cn[nH]c2)ccc1N1CCN(Cc2cccc(F)c2)C1=O [Example 9, 1-(3-Fluorobenzyl)-3-(2-methoxy-4-(1H-pyrazol-4-yl)phenyl)imidazolidin-2-one]	6.70 to 7.70
COc1cccc(CN2CCN(c3ccc(-c4cn[nH]c4)cc3OC)C2=O)c1 [Example 10, 1-(2-Methoxy-4-(1H-pyrazol-4-yl)phenyl)-3-(3-methoxybenzyl)imidazolidin-2-one]	7.70 to 8.68
COc1cc(-c2cn[nH]c2)ccc1N1CCN(CCc2ccccc2F)C1=O [Example 11, 1-(2-Fluorophenethyl)-3-(2-methoxy-4-(1H-pyrazol-4-yl)phenyl)imidazolidin-2-one]	6.70 to 7.70
COc1cc(-c2cn[nH]c2)ccc1N1CCN(Cc2ccccc2)C1=O [Example 12, 1-Benzyl-3-(2-methoxy-4-(1H-pyrazol-4-yl)phenyl)imidazolidin-2-one]	5.70 to 6.70
COc1cccc([C@@H](C)N2CCN(c3ccc(-c4cn[nH]c4)c(OC)c3)C2=O)c1 [Example 13, (R)-1-(3-Methoxy-4-(1H-pyrazol-4-yl)phenyl)-3-(1-(3-methoxyphenyl)ethyl)imidazolidin-2-one]	> 8.70
COc1cccc([C@@H](C)N2CCN(c3ccc(-c4cn[nH]c4)cc3OC)C2=O)c1 [Example 14, (R)-1-(2-Methoxy-4-(1H-pyrazol-4-yl)phenyl)-3-(1-(3-methoxyphenyl)ethyl)imidazolidin-2-one]	6.70 to 7.70
COc1ccc(F)c(CN2CCN(c3ccc(-c4cn[nH]c4)c(OC)c3)C2=O)c1 [Example 15, 1-(2-Fluoro-5-methoxybenzyl)-3-(3-methoxy-4-(1H-pyrazol-4-yl)phenyl)imidazolidin-2-one]	6.70 to 7.70
COc1cc(N2CCN(Cc3c(F)cccc3F)C2=O)ccc1-c1cn[nH]c1 [Example 16, 1-(2,6-Difluorobenzyl)-3-(3-methoxy-4-(1H-pyrazol-4-yl)phenyl)imidazolidin-2-one]	6.70 to 7.70
COc1cc(N2CCN(Cc3ccccc3F)C2=O)ccc1-c1cn[nH]c1 [Example 17, 1-(2-Fluorobenzyl)-3-(3-methoxy-4-(1H-pyrazol-4-yl)phenyl)imidazolidin-2-one]	6.70 to 7.70
COc1cc(N2CCN(Cc3ccccc3)C2=O)ccc1-c1cn[nH]c1 [Example 18, 1-Benzyl-3-(3-methoxy-4-(1H-pyrazol-4-yl)phenyl)imidazolidin-2-one]	6.70 to 7.70
COc1cccc(C(CC(=O)O)N2CCN(c3ccc(-c4cn[nH]c4)c(OC)c3)C2=O)c1 (centres unmarked) [Example 19, 3-(3-(3-Methoxy-4-(1H-pyrazol-4-yl)phenyl)-2-oxoimidazolidin-1-yl)-3-(3-methoxyphenyl)propanoic Acid, TFA]	6.70 to 7.70
COC(=O)CC(c1cccc(OC)c1)N1CCN(c2ccc(-c3cn[nH]c3)c(OC)c2)C1=O (centres unmarked) [Example 20, Methyl 3-(3-(3-methoxy-4-(1H-pyrazol-4-yl)phenyl)-2-oxoimidazolidin-1-yl)-3-(3-methoxyphenyl)propanoate]	5.70 to 6.70
COc1cccc(C(CCO)N2CCN(c3ccc(-c4cn[nH]c4)c(OC)c3)C2=O)c1 (centres unmarked) [Example 21, 1-(3-Hydroxy-1-(3-methoxyphenyl)propyl)-3-(3-methoxy-4-(1H-pyrazol-4-yl)phenyl)imidazolidin-2-one]	7.70 to 8.68
COc1cccc(C(CC(C)(C)O)N2CCN(c3ccc(-c4cn[nH]c4)c(OC)c3)C2=O)c1 (centres unmarked) [Example 22, 1-(3-Hydroxy-1-(3-methoxyphenyl)-3-methylbutyl)-3-(3-methoxy-4-(1H-pyrazol-4-yl)phenyl)imidazolidin-2-one]	5.70 to 6.70
CCc1cc(N2CCN(Cc3cccc(OC)c3)C2=O)ccc1-c1cn[nH]c1 [Example 23, 1-(3-Ethyl-4-(1H-pyrazol-4-yl)phenyl)-3-(3-methoxybenzyl)imidazolidin-2-one]	7.70 to 8.68
